System: HDACs in HeLa nuclear extracts
Assay: HDAC inhibitory activity assay (fluorometric HDAC inhibitor drug screening kit)
Assay type: biochemical
Conditions: percentage of the positive control, inhibitor control at 20 μM
Experimental: The HDAC inhibitor drug screening kit (k340-100, BioVision, CA, USA) was used to measure HDAC inhibitory activities of the candidate compounds according to the manufacturer’s instructions. The candidate compounds, assay buffer, and HDAC fluorometric substrate, which comprises an acetylated lysine side chain, were added to HeLa nuclear extracts in a 96-well plate and incubated at 37 °C for 30 min. The reaction was stopped by adding lysine developer, and the mixture was incubated for another 30 min at 37 °C. An additional positive control included incubation with double-distilled water, and the inhibitor control consisted of incubation with Trichostatin A (TSA) at 20 μM. HDAC activities were quantified by a fluorescence plate reader (POLARstar OPTIMA, BMG, BRD) with excitation at 370 nm and emission at 450 nm.

With Trichostatin A [TSA] the relative enzymatic activity was 12%.
